Measured values reported in paper PMC11568214, “The impact of 9-azaglycophymine and phenylguanidine derivatives on the proliferation of various breast cancer cell lines in vitro and in vivo” (Scientific Reports, 2024).
Where “and” joins values, the source holds several entries; their conditions need not be identical. Identical values can stand only once. Entries after “also recorded” stand apart in the source; their conditions may differ.

Legend:
BT-474 = test: Pan-caspase activation, ApoStat staining, flow cytometry; assay type: cell-based, human; parameters: key: ↑: induction; ↓: inhibition; ↔: no effect; settings: BT-474, IC50 for 72 h
Procedure: (§1) Cells were seeded in 6-well plates and incubated for 24 h under standard culture conditions. […] For the analyses of pan-caspase activation, the cell suspension was centrifuged for 3 min at 800 rpm, and the cell pellet was stained with 100 µL of ApoStat working solution (1 µL of ApoStat and 5% (v/v) FCS in 100 µL of PBS). Cells were incubated for 30 min under standard culture conditions. The cell suspension was centrifuged for 3 min at 800 rpm, and the cell pellet was washed with 1 mL of fresh PBS. Finally, all samples were analyzed by using flow cytometry (FACSAria III, BD Biosciences, New Jersey, USA).

HCC1937 = test: as above; assay type: cell-based, human; parameters: key: ↑: induction; ↓: inhibition; ↔: no effect; settings: HCC1937, IC50 for 72 h
Procedure: as §1

MCF-7 = test: as above; assay type: cell-based, human; parameters: key: ↑: induction; ↓: inhibition; ↔: no effect; settings: MCF-7, IC50 for 72 h
Procedure: as §1

MDA-MB-468 = test: as above; assay type: cell-based, human; parameters: key: ↑: induction; ↓: inhibition; ↔: no effect; settings: MDA-MB-468, IC50 for 72 h
Procedure: as §1

[1] = system: 4T1 mouse breast cancer cells (TNBC); test: Syngeneic orthotopic 4T1 breast cancer model in BALB/c mice, tumor volume; assay type: in vivo
Text: Compound 19 was selected to be tested against a syngeneic breast cancer model induced by orthotopic inoculation of 4T1 mouse breast cancer cells (TNBC) into BALB/c mice. In that exploratory study, we aimed to investigate for the first time a proposed anticancer efficacy of that compound. For that purpose, three groups were included in the study, each comprising eight animals. The resulting total number of 24 animals aimed to avoid under- or overpowering of the study. The animals were kept under standard laboratory conditions with an ad libitum regime for food and water intake. 5 × 10^4 of 4T1 cells in 50 µL PBS were inoculated in the fourth right mammary fat pad of female mice at day 0. Anesthesia was induced using a combination of ketamine and xylazine at doses of 60 mg/kg and 7.5 mg/kg, respectively.
(§2) On day 6, the mice were assigned to the study groups using a stratified randomization approach, ensuring that the mean tumor volumes were as similar as possible across all groups. The control group was treated with 400 µL of vehicle solution, the low dose compound 19 group with 5 mg/kg in 400 µL of vehicle, and the high dose group with 20 mg/mL in 400 µL of vehicle. The vehicle was 4% (v/v) DMSO in PBS, and the administration route was intraperitoneal (i.p.). The animals were treated daily on days 6–10 (starting from the day when tumors became palpable), 13–17 and day 20. Animals were visually examined daily, and urine samples were collected on the first and last day of treatment and analyzed by Multistix urine test stripes (Siemens Healthineers, Erlangen, Germany). On day 21 of the experiment, the mice were sacrificed using cervical dislocation. Following the sacrifice, the tumor diameters were measured using a caliper. The tumor volume (V) was then calculated using the formula V = L*W^2*0.52[36], where L represents the longest diameter and W the shortest diameter of the tumor.

[2] = Urine analysis with Multistix urine test stripes in the 4T1 in vivo study; parameters: species or system BALB/c mice; key to Glucose (urine) / Blood (urine): -: marker was not detectable in the respective urine sample; +: marker was detected
Procedure: as §2, with “The control group was treated with 400 µL of vehicle solution, the low dose compound 19 group with 5 mg/kg in 400 µL of vehicle, and the high dose group with 20 mg/mL in 400 µL of vehicle.” left out

SMILES: O=c1[nH]c(Nc2ccc([N+](=O)[O-])cc2)nc2ccccc12 [Compound 19, 4′-nitro-9-aza-glycophymine]
- Pan-caspases (BT-474): ↑
- Pan-caspases (HCC1937): ↑
- Pan-caspases (MCF-7): ↔
- Pan-caspases (MDA-MB-468): ↔
- reduction of the tumor volume compared to the control group ([1]; 5 mg/kg i.p., day 21): 30%
- median tumor volume ([1]; 5 mg/kg i.p., days 6–10, 13–17 and 20, measured day 21, control group 205 mm^3): 143 mm^3
- tumor suppression at the higher dose ([1]; 20 mg/kg i.p., compared with 5 mg/kg): no further improvement of the tumor suppression was observed
- Bilirubin (urine) ([2]; 5 mg/kg, Day 6, three mice): small
- Blood (urine) ([2]; 5 mg/kg, Day 6, three mice): -
- Ketones (urine) ([2]; 5 mg/kg, Day 6, three mice): 10 mg/dL
- Leucocytes (urine) ([2]; 5 mg/kg, Day 6, three mice): 25 cells/µL
- Specific gravity (urine) ([2]; 5 mg/kg, Day 6, three mice): 1.025 and 1.000 and 1.030
- pH (urine) ([2]; 5 mg/kg, Day 6, three mice): 6 and 5
- Bilirubin (urine) ([2]; 5 mg/kg, Day 20, three mice): small
- Blood (urine) ([2]; 5 mg/kg, Day 20, three mice): -
- Glucose (urine) ([2]; 5 mg/kg, Day 20, three mice): -
- Ketones (urine) ([2]; 5 mg/kg, Day 20, three mice): 10 mg/dL
- Leucocytes (urine) ([2]; 5 mg/kg, Day 20, three mice): 25 cells/µL
- Proteins (urine) ([2]; 5 mg/kg, Day 20, three mice): 100 mg/dL
- Specific gravity (urine) ([2]; 5 mg/kg, Day 20, three mice): 1.030 and 1.025
- pH (urine) ([2]; 5 mg/kg, Day 20, three mice): 6
- Bilirubin (urine) ([2]; 20 mg/kg, Day 6, three mice): small
- Blood (urine) ([2]; 20 mg/kg, Day 6, three mice): -
- Ketones (urine) ([2]; 20 mg/kg, Day 6, three mice): 10 mg/dL
- Leucocytes (urine) ([2]; 20 mg/kg, Day 6, three mice): 25 cells/µL
- Proteins (urine) ([2]; 20 mg/kg, Day 6, three mice): 30 mg/dL
- Specific gravity (urine) ([2]; 20 mg/kg, Day 6, three mice): 1.025 and 1.030
- Uroglobin (urine) ([2]; 20 mg/kg, Day 6, three mice): 4 mg/dL
- pH (urine) ([2]; 20 mg/kg, Day 6, three mice): 6 and 5
- Bilirubin (urine) ([2]; 20 mg/kg, Day 20, three mice): small; also recorded: moderate
- Blood (urine) ([2]; 20 mg/kg, Day 20, three mice): -
- Ketones (urine) ([2]; 20 mg/kg, Day 20, three mice): 10 mg/dL and 5 mg/dL
- Specific gravity (urine) ([2]; 20 mg/kg, Day 20, three mice): 1.030 and 1.025
- Uroglobin (urine) ([2]; 20 mg/kg, Day 20, three mice): 4 mg/dL and 8 mg/dL
- pH (urine) ([2]; 20 mg/kg, Day 20, three mice): 5 and 6
